Experimental data reported in patent US9273057B2 (Bristol-Myers Squibb Company, priority 2012, dated 2016).

Target: CK2A1 (CK2α/β) (Homo sapiens, UniProt P68400)
Assay: CK2 kinase assay, CK2A1 (CK2α/β)
Type: biochemical
Conditions: Table A; read-out: CK2A1 (CK2α/β) (IC50)

CK2A1 (CK2α/β), sequence (P68400 whole entry, species assumed): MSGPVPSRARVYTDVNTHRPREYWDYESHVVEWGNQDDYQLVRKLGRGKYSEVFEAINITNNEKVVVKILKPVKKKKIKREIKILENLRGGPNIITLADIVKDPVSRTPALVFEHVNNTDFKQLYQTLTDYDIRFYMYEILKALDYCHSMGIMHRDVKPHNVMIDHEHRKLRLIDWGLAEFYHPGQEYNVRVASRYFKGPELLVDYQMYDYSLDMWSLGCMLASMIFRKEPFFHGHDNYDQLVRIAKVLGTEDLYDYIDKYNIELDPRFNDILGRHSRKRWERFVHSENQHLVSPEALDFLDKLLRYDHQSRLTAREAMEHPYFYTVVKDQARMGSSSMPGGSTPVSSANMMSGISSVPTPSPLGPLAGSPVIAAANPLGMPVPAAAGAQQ
CK2A1 (CK2α/β), sequence (P67870 whole entry partner, species assumed): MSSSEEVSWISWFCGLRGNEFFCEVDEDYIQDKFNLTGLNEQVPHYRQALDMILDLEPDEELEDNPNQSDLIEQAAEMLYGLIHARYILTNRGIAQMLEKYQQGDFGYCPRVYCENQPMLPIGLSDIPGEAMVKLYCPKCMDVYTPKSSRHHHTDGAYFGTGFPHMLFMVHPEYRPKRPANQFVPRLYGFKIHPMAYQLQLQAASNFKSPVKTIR

| IC50 [nM] | Structure (SMILES) |
| --- | --- |
| 1.5 | CC(C)(O)CN1CCC2CN(c3cc(C#N)cc(Nc4nc(NC5CC5)c5ncc(C#N)n5n4)c3Cl)CCC21 (stereo not shown) [Example 450, 2-((2-chloro-5-cyano-3-(1-(2-hydroxy-2-methylpropyl)hexahydro-1H-pyrrolo[3,2-c]pyridin-5(6H)-yl)phenyl)amino)-4-(cyclopropylamino)imidazo[2,1-f][1,2,4]triazine-7-carbonitrile] |
| 0.82 | N#Cc1cc(Nc2nc(NC3CC3)c3ncc(C#N)n3n2)c(Cl)c(N2CC[C@@H]3[C@@H](CCN3[C@H]3CS(=O)(=O)C[C@@H]3O)C2)c1 [Example 452, 2-((2-chloro-5-cyano-3-(1-((3R,4R)-4-hydroxy-1,1-dioxidotetrahydrothiophen-3-yl)hexahydro-1H-pyrrolo[3,2-c]pyridin-5(6H)-yl)phenyl)amino)-4-(cyclopropylamino)imidazo[2,1-f][1,2,4]triazine-7-carbonitrile] |
| 0.49 | N#Cc1cc(Nc2nc(NC3CC3)c3ncc(C#N)n3n2)c(Cl)c(N2CC3CNCC3C2)c1 (stereo not shown) [Example 455, 2-((2-chloro-5-cyano-3-(hexahydropyrrolo[3,4-c]pyrrol-2(1H)-yl)phenyl)amino)-4-(cyclopropylamino)imidazo[2,1-f][1,2,4]triazine-7-carbonitrile] |
| 2.46 | CN1CC2CN(c3cc(C#N)cc(Nc4nc(NC5CC5)c5ncc(C#N)n5n4)c3Cl)CC2C1 (stereo not shown) [Example 461, 2-((2-chloro-5-cyano-3-(5-methylhexahydropyrrolo[3,4-c]pyrrol-2(1H)-yl)phenyl)amino)-4-(cyclopropylamino)imidazo[2,1-f][1,2,4]triazine-7-carbonitrile] |
| 3 | COC(=O)N1CC2CN(c3cc(C#N)cc(Nc4nc(NC5CC5)c5ncc(C#N)n5n4)c3Cl)CC2C1 (stereo not shown) [Example 462, methyl 5-(2-chloro-5-cyano-3-((7-cyano-4-(cyclopropylamino)imidazo[2,1-f][1,2,4]triazin-2-yl)amino)phenyl)hexahydro-pyrrolo[3,4-c]pyrrole-2(1H)-carboxylate] |
| 1 | N#Cc1cc(CN2CCCC3(COC3)C2)c(Cl)c(Nc2nc(NC3CC3)c3ncc(C#N)n3n2)c1 [Example 463, 2-((3-(2-oxa-6-azaspiro[3.5]nonan-6-ylmethyl)-2-chloro-5-cyanophenyl)amino)-4-(cyclopropylamino)imidazo[2,1-f][1,2,4]triazine-7-carbonitrile] |
| 0.57 | CN(CCC#N)Cc1cc(C#N)cc(Nc2nc(NC3CC3)c3ncc(C#N)n3n2)c1Cl [Example 464, 2-[(2-chloro-5-cyano-3-{[(2-cyanoethyl)(methyl)amino]methyl}phenyl)amino]-4-(cyclopropylamino)imidazo[2,1-f][1,2,4]triazine-7-carbonitrile] |
| 1.66 | N#Cc1cc(CN2CCN(CCO)CC2)c(Cl)c(Nc2nc(NC3CC3)c3ncc(C#N)n3n2)c1 [Example 465, 2-[(2-chloro-5-cyano-3-{[4-(2-hydroxyethyl)piperazin-1-yl]methyl}phenyl)amino]-4-(cyclopropylamino)imidazo[2,1-f][1,2,4]triazine-7-carbonitrile] |
| 1.31 | N#Cc1cc(CNCCN2CCOCC2)c(Cl)c(Nc2nc(NC3CC3)c3ncc(C#N)n3n2)c1 [Example 466, 2-{[2-chloro-5-cyano-3-({[2-(morpholin-4-yl)ethyl]amino}methyl)phenyl]amino}-4-(cyclopropylamino)imidazo[2,1-f][1,2,4]triazine-7-carbonitrile] |
| 0.45 | N#Cc1cc(CNCc2ccccn2)c(Cl)c(Nc2nc(NC3CC3)c3ncc(C#N)n3n2)c1 [Example 467, 2-[(2-chloro-5-cyano-3-{[(pyridin-2-ylmethyl)amino]methyl}phenyl)amino]-4-(cyclopropylamino)imidazo[2,1-f][1,2,4]triazine-7-carbonitrile] |
| 0.3 | CC(C)(C)NCc1cc(C#N)cc(Nc2nc(NC3CC3)c3ncc(C#N)n3n2)c1Cl [Example 468, 2-({3-[(tert-butylamino)methyl]-2-chloro-5-cyanophenyl}amino)-4-(cyclopropylamino)imidazo[2,1-f][1,2,4]triazine-7-carbonitrile] |
| 1.48 | CC(C)(C)CNCc1cc(C#N)cc(Nc2nc(NC3CC3)c3ncc(C#N)n3n2)c1Cl [Example 469, 2-[(2-chloro-5-cyano-3-{[(2,2-dimethylpropyl)amino]methyl}phenyl)amino]-4-(cyclopropylamino)imidazo[2,1-f][1,2,4]triazine-7-carbonitrile] |
| 1.5 | N#Cc1cc(CNCC2CC2)c(Cl)c(Nc2nc(NC3CC3)c3ncc(C#N)n3n2)c1 [Example 470] |
| 0.87 | N#Cc1cc(CN2CCC(C(N)=O)CC2)c(Cl)c(Nc2nc(NC3CC3)c3ncc(C#N)n3n2)c1 [Example 471, 1-[(2-chloro-5-cyano-3-{[7-cyano-4-(cyclopropylamino)imidazo[2,1-f][1,2,4]triazin-2-yl]amino}phenyl)methyl]piperidine-4-carboxamide] |
| 1.7 | CC(C)(C)N1CCN(Cc2cc(C#N)cc(Nc3nc(NC4CC4)c4ncc(C#N)n4n3)c2Cl)CC1 [Example 472, 2-((3-[(4-tert-butylpiperazin-1-yl)methyl]-2-chloro-5-cyanophenyl}amino)-4-(cyclopropylamino)imidazo[2,1-f][1,2,4]triazine-7-carbonitrile] |
| 0.56 | CC(=O)N[C@H]1CCN(Cc2cc(C#N)cc(Nc3nc(NC4CC4)c4ncc(C#N)n4n3)c2Cl)C1 [Example 473, N-[(3S)-1-[(2-chloro-5-cyano-3-{[7-cyano-4-(cyclopropylamino)imidazo[2,1-f][1,2,4]triazin-2-yl]amino}phenyl)methyl]pyrrolidin-3-yl]acetamide] |
| 1.55 | N#CCCN(Cc1cc(C#N)cc(Nc2nc(NC3CC3)c3ncc(C#N)n3n2)c1Cl)CC1CCCO1 (stereo not shown) [Example 474, 2-[(2-chloro-5-cyano-3-{[(2-cyanoethyl)(oxolan-2-ylmethyl)amino]methyl}phenyl)amino]-4-(cyclopropylamino)imidazo[2,1-f][1,2,4]triazine-7-carbonitrile] |
| 1.78 | COCCN(C)Cc1cc(C#N)cc(Nc2nc(NC3CC3)c3ncc(C#N)n3n2)c1Cl [Example 475, 2-[(2-chloro-5-cyano-3-{[(2-methoxyethyl)(methyl)amino]methyl}phenyl)amino]-4-(cyclopropylamino)imidazo[2,1-f][1,2,4]triazine-7-carbonitrile] |
| 2.98 | COCCN1CCN(Cc2cc(C#N)cc(Nc3nc(NC4CC4)c4ncc(C#N)n4n3)c2Cl)CC1 [Example 476, 2-[(2-chloro-5-cyano-3-{[4-(2-methoxyethyl)piperazin-1-yl]methyl}phenyl)amino]-4-(cyclopropylamino)imidazo[2,1-f][1,2,4]triazine-7-carbonitrile] |
| 2.43 | N#Cc1cc(CN2CCC(F)(F)CC2)c(Cl)c(Nc2nc(NC3CC3)c3ncc(C#N)n3n2)c1 [Example 477, 2-({2-chloro-5-cyano-3-[(4,4-difluoropiperidin-1-yl)methyl]phenyl}amino)-4-(cyclopropylamino)imidazo[2,1-f][1,2,4]triazine-7-carbonitrile] |
| 1.31 | COC(=O)N1CCN(Cc2cc(C#N)cc(Nc3nc(NC4CC4)c4ncc(C#N)n4n3)c2Cl)CC1 [Example 478, methyl 4-[(2-chloro-5-cyano-3-{[7-cyano-4-(cyclopropylamino)imidazo[2,1-f][1,2,4]triazin-2-yl]amino}phenyl)methyl]piperazine-1-carboxylate] |
| 1.07 | N#Cc1cc(CNC2COC2)c(Cl)c(Nc2nc(NC3CC3)c3ncc(C#N)n3n2)c1 [Example 479, 2-[(2-chloro-5-cyano-3-{[(oxetan-3-yl)amino]methyl}phenyl)amino]-4-(cyclopropylamino)imidazo[2,1-f][1,2,4]triazine-7-carbonitrile] |
| 0.86 | CC(=O)N1CC(N2CCN(c3cc(C#N)cc(Nc4nc(NC5CC5)c5ncc(C#N)n5n4)c3Cl)CC2)C1 [Example 480, 2-({3-[4-(1-acetylazetidin-3-yl)piperazin-1-yl]-2-chloro-5-cyanophenyl}amino)-4-(cyclopropylamino)imidazo[2,1-f][1,2,4]triazine-7-carbonitrile] |
| 0.93 | N#Cc1cc(Nc2nc(NC3CC3)c3ncc(C#N)n3n2)c(Cl)c(N2CCN(C3CN(C(=O)C4(O)CC4)C3)CC2)c1 [Example 481, 2-[(2-chloro-5-cyano-3-{4-[1-(1-hydroxycyclopropane-carbonyl)azetidin-3-yl]piperazin-1-yl}phenyl)amino]-4-(cyclopropylamino)imidazo[2,1-f][1,2,4]triazine-7-carbonitrile] |
| 1.52 | COCCC(=O)N1CC(N2CCN(c3cc(C#N)cc(Nc4nc(NC5CC5)c5ncc(C#N)n5n4)c3Cl)CC2)C1 [Example 482, 2-[(2-chloro-5-cyano-3-{4-[1-(3-methoxypropanoyl)azetidin-3-yl]piperazin-1-yl}phenyl)amino]-4-(cyclopropylamino)imidazo[2,1-f][1,2,4]triazine-7-carbonitrile] |
| 0.87 | N#Cc1cc(Nc2nc(NC3CC3)c3ncc(C#N)n3n2)c(Cl)c(N2CCN(C3CN(C(=O)CC4CCOCC4)C3)CC2)c1 [Example 483, 2-{[2-chloro-5-cyano-3-(4-{1-[2-(oxan-4-yl)acetyl]azetidin-3-yl}piperazin-1-yl)phenyl]amino}-4-(cyclopropylamino)imidazo[2,1-f][1,2,4]triazine-7-carbonitrile] |
| 0.81 | CC(C)(O)C(=O)N1CC(N2CCN(c3cc(C#N)cc(Nc4nc(NC5CC5)c5ncc(C#N)n5n4)c3Cl)CC2)C1 [Example 484, 2-[(2-chloro-5-cyano-3-{4-[1-(2-hydroxy-2-methylpropanoyl)azetidin-3-yl]piperazin-1-yl}phenyl)amino]-4-(cyclopropylamino)imidazo[2,1-f][1,2,4]triazine-7-carbonitrile] |
| 0.77 | N#Cc1cc(Nc2nc(NC3CC3)c3ncc(C#N)n3n2)c(Cl)c(N2CCN(C3CN(C(=O)C4CC4)C3)CC2)c1 [Example 485, 2-({2-chloro-5-cyano-3-[4-(1-cyclopropanecarbonyl-azetidin-3-yl)piperazin-1-yl]phenyl}amino)-4-(cyclopropylamino)imidazo[2,1-f][1,2,4]triazine-7-carbonitrile] |
